Laboratory results as given in US10501464B2, “7-oxo-6-(sulfooxy)-1,6-diazabicyclo[3.2.1]octane-2-carboxamide containing compounds and their use in treating bacterial infections” (WOCKHARDT LIMITED, priority 2015, dated 2019).
Like-named read-outs stand apart in the source and are kept apart here.

Experiments:
Test in all cases: Antibacterial activity, MIC by agar dilution (CLSI)
Format in all cases: cell-based
[1] = tested on: E. coli 13351; conditions: compound tested alone
Procedure: (§1) The biological activity of representative compounds according to the invention against various bacterial strains was investigated. In a typical study, overnight grown bacterial cultures were diluted appropriately and inoculated on the agar media containing doubling dilutions of the test compounds. Observations for growth or no growth was performed after 16-20 hours of incubation at 35±2° C. in the ambient air. The overall procedure was performed as per Clinical and Laboratory Standards Institute (CLSI) recommendations, (Clinical and Laboratory Standards Institute (CLSI), Performance Standards for Antimicrobial Susceptibility Testing, 20th Informational Supplement, M07-A9, Volume 32, No. 2, 2012). Molten Mueller Hinton Agar (BD, USA) containing serial dilutions of each antibacterial agent were poured on to the plates and allowed to solidify. Appropriate suspensions from the freshly grown cultures were prepared in normal saline so that about 10^4CFU/spot of the organism was delivered on to the drug containing agar plates using automated multipoint inoculator (Mast, UK). The plates were incubated in Biochemical oxygen demand (BOD) incubator at 37° C. for 18 hours and then examined for growth.
(§2) Method for the determination of MIC: The Minimum Inhibitory Concentration (MIC) determination for the combinations was carried out in Muller Hinton Agar (MHA) (BD, USA) according to Clinical and Laboratory Standards Institute (CLSI) recommendations, (Clinical and Laboratory Standards Institute (CLSI), Performance Standards for Antimicrobial Susceptibility Testing, 20th Informational Supplement, M 100-S20, Volume 30, No. 1, 2010). In short, the test strains were adjusted to deliver about 10^4CFU per spot with a multipoint inoculator (Applied Quality Services, UK). The plates were poured with MHA containing doubling concentration range of representative compounds according to present invention. The plates were inoculated and were incubated at 35° C. for 18 hour. […] The Table 2 depicts the antibacterial activity profile of compounds according to present invention against various multidrug resistant bacterial strains.

[2] = tested on: E. coli 13352; conditions: compound tested alone
Procedure: as §1, §2

[3] = tested on: E. coli 13353; conditions: compound tested alone
Procedure: as §1, §2

[4] = tested on: E. coli 7 MP; conditions: compound tested alone
Procedure: as §1, §2

[5] = tested on: E. coli M 138; conditions: compound tested alone
Procedure: as §1, §2

[6] = tested on: E. coli M 36; conditions: compound tested alone
Procedure: as §1, §2

[7] = tested on: E. coli M 49; conditions: compound tested alone
Procedure: as §1, §2

[8] = tested on: E. coli M 50; conditions: compound tested alone
Procedure: as §1, §2

[9] = tested on: K. pneumoniae ATCC 700603
Procedure: as §1, §2

[10] = tested on: K. pneumoniae H 521; conditions: compound tested alone
Procedure: as §1, §2

[11] = tested on: K. pneumoniae H 522; conditions: compound tested alone
Procedure: as §1, §2

[12] = tested on: K. pneumoniae H 523; conditions: compound tested alone
Procedure: as §1, §2

[13] = tested on: K. pneumoniae H 525; conditions: compound tested alone
Procedure: as §1, §2

[14] = tested on: P. mirabilis S 137B; conditions: compound tested alone
Procedure: as §1, §2

[15] = Escherichia coli, 13351, E. coli 13351, read-out: MIC
[16] = Escherichia coli, 13352, E. coli 13352, read-out: MIC
[17] = Escherichia coli, 13353, E. coli 13353, read-out: MIC
[18] = Escherichia coli, 7MP, read-out: MIC
[19] = Escherichia coli, M138, E. coli M 138, read-out: MIC
[20] = Escherichia coli, M36, E. coli M 36, read-out: MIC
[21] = Escherichia coli, M49, E. coli M 49, read-out: MIC
[22] = Escherichia coli, M50, E. coli M 50, read-out: MIC
[23] = Klebsiella pneumoniae, ATCC700603, compound tested alone, read-out: MIC
[24] = Klebsiella pneumoniae, H521, K. pneumoniae H 521, read-out: MIC
[25] = Klebsiella pneumoniae, H522, K. pneumoniae H 522, read-out: MIC
[26] = Klebsiella pneumoniae, H523, K. pneumoniae H 523, read-out: MIC
[27] = Klebsiella pneumoniae, H525, K. pneumoniae H 525, read-out: MIC
[28] = Proteus mirabilis, S137B, read-out: MIC

| SMILES | MIC [1, 15] | MIC [2, 16] | MIC [3, 17] | MIC [4, 18] | MIC [5, 19] | MIC [6, 20] | MIC [7, 21] | MIC [8, 22] | MIC [9, 23] | MIC [10, 24] | MIC [11, 25] | MIC [12, 26] | MIC [13, 27] | MIC [14, 28] | MIC ([1]; E. coli 13351) | MIC ([2]; E. coli 13352) | MIC ([3]; E. coli 13353) | MIC ([7]; E. coli M 49) | MIC ([8]; E. coli M 50) | other results |
| --- | --- | --- | --- | --- | --- | --- | --- | --- | --- | --- | --- | --- | --- | --- | --- | --- | --- | --- | --- | --- |
| O=C(NOC[C@@H]1C[C@H](n2ncnn2)CN1)[C@@H]1CC[C@@H]2CN1C(=O)N2OS(=O)(=O)O [Example 1, (2S,5R)-N-{[(2S,4S)-4-(2H-tetrazol-2-yl)pyrrolidin-2-yl]methyloxy}-7-oxo-6-(sulfooxy)-1,6-diazabicyclo[3.2.1]octane-2-carboxamide] | 4 µg/mL | 4 µg/mL | 2 µg/mL | 8 µg/mL | 4 µg/mL | 1 µg/mL | 16 µg/mL | 2 µg/mL | > 32 µg/mL | 4 µg/mL | 4 µg/mL | 4 µg/mL | 4 µg/mL | > 32 µg/mL | – | – | – | – | – | – |
| O=C(NNC(=O)[C@@H]1CC[C@@H]2CN1C(=O)N2OS(=O)(=O)O)[C@@H]1C[C@@H](n2cccn2)CN1 [Example 3] | – | – | – | 8 µg/mL | 2 µg/mL | 2 µg/mL | – | – | > 32 µg/mL | 4 µg/mL | 4 µg/mL | 4 µg/mL | 4 µg/mL | > 32 µg/mL | 1 µg/mL | 1 µg/mL | 1 µg/mL | 4 µg/mL | 1 µg/mL | – |
| O=C(NOC[C@@H]1C[C@H](n2nccn2)CN1)[C@@H]1CC[C@@H]2CN1C(=O)N2OS(=O)(=O)O [Example 5] | 1 µg/mL | 1 µg/mL | 1 µg/mL | 2 µg/mL | 1 µg/mL | 1 µg/mL | 8 µg/mL | 1 µg/mL | > 32 µg/mL | 4 µg/mL | 4 µg/mL | 4 µg/mL | 4 µg/mL | > 32 µg/mL | – | – | – | – | – | – |
| O=C(NOC[C@@H]1C[C@H](n2ccnn2)CN1)[C@@H]1CC[C@@H]2CN1C(=O)N2OS(=O)(=O)O [Example 6] | 2 µg/mL | 2 µg/mL | 1 µg/mL | 4 µg/mL | 1 µg/mL | 1 µg/mL | 8 µg/mL | 1 µg/mL | > 32 µg/mL | 2 µg/mL | 2 µg/mL | 2 µg/mL | 2 µg/mL | > 32 µg/mL | – | – | – | – | – | – |
| O=C(NOC[C@H]1C[C@H](n2ccnc2)CN1)[C@@H]1CC[C@@H]2CN1C(=O)N2OS(=O)(=O)O [Example 7] | 1 µg/mL | 1 µg/mL | 0.5 µg/mL | 2 µg/mL | 1 µg/mL | 0.5 µg/mL | 4 µg/mL | 1 µg/mL | > 32 µg/mL | 2 µg/mL | 2 µg/mL | 2 µg/mL | 2 µg/mL | > 32 µg/mL | – | – | – | – | – | – |
| O=C(NOC[C@@H]1CC(n2cccn2)CN1)[C@@H]1CC[C@@H]2CN1C(=O)N2OS(=O)(=O)O (stereo partly drawn) [Example 8] | 1 µg/mL | 1 µg/mL | 0.5 µg/mL | 2 µg/mL | 1 µg/mL | 0.5 µg/mL | 4 µg/mL | 1 µg/mL | > 32 µg/mL | 1 µg/mL | 1 µg/mL | 1 µg/mL | 1 µg/mL | > 32 µg/mL | – | – | – | – | – | – |
| O=C(NOC[C@@H]1C[C@H](n2cncn2)CN1)[C@@H]1CC[C@@H]2CN1C(=O)N2OS(=O)(=O)O [Example 9] | 2 µg/mL | 2 µg/mL | 1 µg/mL | 2 µg/mL | 1 µg/mL | 1 µg/mL | 4 µg/mL | 1 µg/mL | > 32 µg/mL | 2 µg/mL | 2 µg/mL | 2 µg/mL | 2 µg/mL | > 32 µg/mL | – | – | – | – | – | – |
| CN1CCN([C@H]2CNC(CONC(=O)[C@@H]3CC[C@@H]4CN3C(=O)N4OS(=O)(=O)O)C2)CC1 (stereo partly drawn) [Example 22] | – | – | – | – | – | – | – | – | – | – | – | – | – | – | 8 µg/mL | 16 µg/mL | 4 µg/mL | 8 µg/mL | 8 µg/mL | MIC [4]: 16 µg/mL; MIC ([5]; E. coli M 138): 8 µg/mL; MIC ([6]; E. coli M 36): 4 µg/mL; MIC ([9]; compound tested alone): >32 µg/mL; MIC ([10]; K. pneumoniae H 521): 8 µg/mL; MIC ([11]; K. pneumoniae H 522): 8 µg/mL; MIC ([12]; K. pneumoniae H 523): 8 µg/mL; MIC ([13]; K. pneumoniae H 525): 8 µg/mL |
| O=C(NNC(=O)[C@@H]1CC[C@@H]2CN1C(=O)N2OS(=O)(=O)O)[C@@H]1C[C@H](n2ncnn2)CN1 [Example 23] | 2 µg/mL | 2 µg/mL | 1 µg/mL | 4 µg/mL | 2 µg/mL | 1 µg/mL | 8 µg/mL | 1 µg/mL | > 32 µg/mL | 4 µg/mL | 4 µg/mL | 4 µg/mL | 4 µg/mL | > 32 µg/mL | – | – | – | – | – | – |
| O=C(NNC(=O)[C@@H]1CC[C@@H]2CN1C(=O)N2OS(=O)(=O)O)C1C[C@H](n2ccnc2)CN1 (stereo partly drawn) [Example 34] | – | – | – | – | – | – | – | – | – | – | – | – | – | – | 4 µg/mL | 8 µg/mL | 4 µg/mL | 4 µg/mL | 8 µg/mL | MIC [4]: 16 µg/mL; MIC ([6]; E. coli M 36): 4 µg/mL; MIC ([9]; compound tested alone): >32 µg/mL; MIC ([10]; K. pneumoniae H 521): 8 µg/mL; MIC ([11]; K. pneumoniae H 522): 8 µg/mL; MIC ([12]; K. pneumoniae H 523): 8 µg/mL; MIC ([13]; K. pneumoniae H 525): 8 µg/mL; MIC [14]: >32 µg/mL |
